From ChEMBL document CHEMBL4622899, “Synthesis and anticancer activity of open-resorcinarene conjugates” (Bioorg Med Chem Lett, 2020)

Legend:
U-251 = experiment: Anticancer activity against human U251 cells assessed as cell growth inhibition measured after 48 hrs by MTT assay; assay type: functional, cell-based
PC-3 = experiment: Anticancer activity against human PC3 cells assessed as cell growth inhibition measured after 48 hrs by MTT assay; assay type: functional, cell-based
K562 = experiment: Anticancer activity against human K562 cells assessed as cell growth inhibition measured after 48 hrs by MTT assay; assay type: functional, cell-based
HCT-15 = experiment: Anticancer activity against human HCT15 cells assessed as cell growth inhibition measured after 48 hrs by MTT assay; assay type: functional, cell-based
MCF7 = experiment: Anticancer activity against human MCF7 cells assessed as cell growth inhibition measured after 48 hrs by MTT assay; assay type: functional, cell-based
SK-LU-1 = experiment: Anticancer activity against human SKLU1 cells assessed as cell growth inhibition measured after 48 hrs by MTT assay; assay type: functional, cell-based
COS-7 = experiment: Cytotoxicity against African green monkey COS7 cells assessed as cell growth inhibition measured after 48 hrs by MTT assay; assay type: cell-based, Chlorocebus aethiops
[1] = Homo sapiens, U-251, 48 h, read-out: IC50
[2] = Homo sapiens, PC-3, 48 h, read-out: IC50
[3] = Homo sapiens, K562, 48 h, read-out: IC50
[4] = Homo sapiens, HCT-15, 48 h, read-out: IC50
[5] = Homo sapiens, MCF7, 48 h, read-out: IC50
[6] = Homo sapiens, SK-LU-1, 48 h, read-out: IC50
[7] = Chlorocebus aethiops, COS-7, 48 h, read-out: IC50

Row | IC50 (U-251; [1]) [µM] | IC50 (PC-3; [2]) [µM] | IC50 (K562; [3]) [µM] | IC50 (HCT-15; [4]) [µM] | IC50 (MCF7; [5]) [µM] | IC50 (SK-LU-1; [6]) [µM] | IC50 (U-251; u-251) | IC50 (PC-3; pc-3) | IC50 (K562; k562) | IC50 (HCT-15; hct-15) | IC50 (MCF7; mcf7) | IC50 (SK-LU-1; sk-lu-1) | SMILES | IC50 (COS-7; [7]) [µM] | IC50 (COS-7; cos-7)
1 | > 1000 | > 1000 | > 1000 | > 1000 | > 1000 | > 1000 |  |  |  |  |  |  | CC(C)Cc1ccc(C(C)C(=O)OCCNC(=O)COc2cc(OCC(=O)NCCOC(=O)C(C)c3ccc(CC(C)C)cc3)c(C(c3ccc(C(c4cc(Cl)c(OCC(=O)NCCOC(=O)C(C)c5ccc(CC(C)C)cc5)cc4OCC(=O)NCCOC(=O)C(C)c4ccc(CC(C)C)cc4)c4cc(Cl)c(OCC(=O)NCCOC(=O)C(C)c5ccc(CC(C)C)cc5)cc4OCC(=O)NCCOC(=O)C(C)c4ccc(CC(C)C)cc4)cc3)c3cc(Cl)c(OCC(=O)NCCOC(=O)C(C)c4ccc(CC(C)C)cc4)cc3OCC(=O)NCCOC(=O)C(C)c3ccc(CC(C)C)cc3)cc2Cl)cc1 (configuration not stated) | > 1000 | 
2 | > 1000 | > 1000 | > 1000 | > 1000 | 92.1 | 90.6 |  |  |  |  |  |  | CC(C)Cc1ccc(C(C)C(=O)O)cc1 (configuration not stated) [IBUPROFEN] | > 1000 | 
3 | 50.3 | > 1000 | > 1000 | > 1000 | > 1000 | > 1000 |  |  |  |  |  |  | COc1ccc2cc([C@H](C)C(=O)OCCNC(=O)COc3cc(OCC(=O)NCCOC(=O)[C@@H](C)c4ccc5cc(OC)ccc5c4)c(C(c4ccc(C(c5cc(Cl)c(OCC(=O)NCCOC(=O)[C@@H](C)c6ccc7cc(OC)ccc7c6)cc5OCC(=O)NCCOC(=O)[C@@H](C)c5ccc6cc(OC)ccc6c5)c5cc(Cl)c(OCC(=O)NCCOC(=O)[C@@H](C)c6ccc7cc(OC)ccc7c6)cc5OCC(=O)NCCOC(=O)[C@@H](C)c5ccc6cc(OC)ccc6c5)cc4)c4cc(Cl)c(OCC(=O)NCCOC(=O)[C@@H](C)c5ccc6cc(OC)ccc6c5)cc4OCC(=O)NCCOC(=O)[C@@H](C)c4ccc5cc(OC)ccc5c4)cc3Cl)ccc2c1 | > 1000 | 
4 | 23.1 | > 1000 | > 1000 | > 1000 | > 1000 | > 1000 |  |  |  |  |  |  | COc1ccc2c(c1)c(CC(=O)OCCNC(=O)COc1cc(OCC(=O)NCCOC(=O)Cc3c(C)n(C(=O)c4ccc(Cl)cc4)c4ccc(OC)cc34)c(C(c3ccc(C(c4cc(Cl)c(OCC(=O)NCCOC(=O)Cc5c(C)n(C(=O)c6ccc(Cl)cc6)c6ccc(OC)cc56)cc4OCC(=O)NCCOC(=O)Cc4c(C)n(C(=O)c5ccc(Cl)cc5)c5ccc(OC)cc45)c4cc(Cl)c(OCC(=O)NCCOC(=O)Cc5c(C)n(C(=O)c6ccc(Cl)cc6)c6ccc(OC)cc56)cc4OCC(=O)NCCOC(=O)Cc4c(C)n(C(=O)c5ccc(Cl)cc5)c5ccc(OC)cc45)cc3)c3cc(Cl)c(OCC(=O)NCCOC(=O)Cc4c(C)n(C(=O)c5ccc(Cl)cc5)c5ccc(OC)cc45)cc3OCC(=O)NCCOC(=O)Cc3c(C)n(C(=O)c4ccc(Cl)cc4)c4ccc(OC)cc34)cc1Cl)c(C)n2C(=O)c1ccc(Cl)cc1 | > 1000 | 

More lines, now with the values behind:

Row | SMILES | IC50 (U-251; [1]) [µM] | IC50 (PC-3; [2]) [µM] | IC50 (K562; [3]) [µM] | IC50 (HCT-15; [4]) [µM] | IC50 (MCF7; [5]) [µM] | IC50 (SK-LU-1; [6]) [µM] | IC50 (U-251; u-251) | IC50 (PC-3; pc-3) | IC50 (K562; k562) | IC50 (HCT-15; hct-15) | IC50 (MCF7; mcf7) | IC50 (SK-LU-1; sk-lu-1) | IC50 (COS-7; [7]) [µM] | IC50 (COS-7; cos-7)
5 | COc1ccc2cc([C@H](C)C(=O)O)ccc2c1 [NAPROXEN] | > 1000 | > 1000 | 181 | > 1000 | > 1000 | > 1000 |  |  |  |  |  |  | > 1000 | 
6 | COC(=O)COc1cc(OCC(=O)OC)c(C(c2ccc(C(c3cc(Cl)c(OCC(=O)OC)cc3OCC(=O)OC)c3cc(Cl)c(OCC(=O)OC)cc3OCC(=O)OC)cc2)c2cc(Cl)c(OCC(=O)OC)cc2OCC(=O)OC)cc1Cl |  |  |  |  |  |  | Not Active | Not Active | Not Active | Not Active | Not Active | Not Active |  | Not Active
7 | O=C(COc1cc(OCC(=O)NCCO)c(C(c2ccc(C(c3cc(Cl)c(OCC(=O)NCCO)cc3OCC(=O)NCCO)c3cc(Cl)c(OCC(=O)NCCO)cc3OCC(=O)NCCO)cc2)c2cc(Cl)c(OCC(=O)NCCO)cc2OCC(=O)NCCO)cc1Cl)NCCO |  |  |  |  |  |  | Not Active | Not Active | Not Active | Not Active | Not Active | Not Active |  | Not Active
8 | Oc1cc(O)c(C(c2ccc(C(c3cc(Cl)c(O)cc3O)c3cc(Cl)c(O)cc3O)cc2)c2cc(Cl)c(O)cc2O)cc1Cl |  |  |  |  |  |  | Not Active | Not Active | Not Active | Not Active | Not Active | Not Active |  | Not Active
9 | COc1ccc2c(c1)c(CC(=O)O)c(C)n2C(=O)c1ccc(Cl)cc1 [INDOMETHACIN] | 20.4 | > 1000 | 190 | > 1000 | > 1000 | > 1000 |  |  |  |  |  |  | > 1000 | 
10 | O=C(COc1cc(OCC(=O)NCCOC(=O)CCCc2ccc(N(CCCl)CCCl)cc2)c(C(c2ccc(C(c3cc(Cl)c(OCC(=O)NCCOC(=O)CCCc4ccc(N(CCCl)CCCl)cc4)cc3OCC(=O)NCCOC(=O)CCCc3ccc(N(CCCl)CCCl)cc3)c3cc(Cl)c(OCC(=O)NCCOC(=O)CCCc4ccc(N(CCCl)CCCl)cc4)cc3OCC(=O)NCCOC(=O)CCCc3ccc(N(CCCl)CCCl)cc3)cc2)c2cc(Cl)c(OCC(=O)NCCOC(=O)CCCc3ccc(N(CCCl)CCCl)cc3)cc2OCC(=O)NCCOC(=O)CCCc2ccc(N(CCCl)CCCl)cc2)cc1Cl)NCCOC(=O)CCCc1ccc(N(CCCl)CCCl)cc1 | 24.3 | 34 | 51.4 | 201 | 81 | 80 |  |  |  |  |  |  | > 1000 | 
11 | O=C(O)CCCc1ccc(N(CCCl)CCCl)cc1 [CHLORAMBUCIL] | 33.1 | 16.4 | 103 | 3.11 | > 100 | 300 |  |  |  |  |  |  | 43.5 | 
